According to patent US20080274544A1, “Promotor for Introducing Extracellular Substance into Mammalian Ovum and Introduction Method” (priority 2005, published 2008):
“Also recorded” adds a separate entry of the source.

Key:
[1] = system: zona pellucida-free mouse unfertilized oocytes; test: In vitro fertilization of zona pellucida-free oocytes, sperm-oocyte fusion; assay type: cell-based; conditions: for number of sperm which fused with the oocytes: zona pellucida-free oocytes, 1 hr after insemination, oocytes cultured 1 hr in 20 μM vinblastine or 10 μM paclitaxel, compared with untreated control (FIG. 1)
Procedure: (§1) • (1) Mice of eight week-old or older were purchased and made adapted to grow environment for 1 week before use. PMS (Serotoropin exclusive to animal, manufactured by ASUKA Pharmaceutical) was injected in an amount of 0.1 ml into the abdominal cavity of the mouse at 8:00 pm. • (2) 48 hr later, HCG (Gonadotropin exclusive to animal, manufactured by ASUKA Pharmaceutical) was injected in an amount of 0.1 ml into the abdominal cavity. • (3) Mice were euthanized the next day (14 to 16 hr after HCG injection), and the ampulla of oviduct was removed. An oocyte surrounded by cumulus cells was collected and cultured in a (100 μL) drop of TYH medium. • (4) Cumulus cells were removed by hyaluronidase (300 μg/mL) treatment, then the oocyte was cultured in TYH medium for 3 hr. In the case of conducting removal of zona pellucida, oocyte zona pellucida was removed by an acid Tyrode's solution treatment followed by culturing the oocyte in TYH medium for 3 hr. 2. Treatment with a Tubulin-Polymerization Inhibitor
(§2) The collected unfertilized oocyte of the mice was treated by using vinblastine (VB) as a tubulin-polymerization inhibitor. As controls, an oocyte treated with paclitaxel (Pac; Brand Name: taxol), tubulin-polymerization promoter, and an untreated oocyte (control) were used. Vinblastine (VB) treatment was conducted by culturing the oocyte in 20 μM of vinblastine solution (TYH medium) for 1 hr, while paclitaxel (Pac) treatment was conducted by culturing the oocyte in 10 μM of paclitaxelel (Pac) solution (TYH medium) similarly for 1 hr.
The mouse unfertilized oocyte was treated with vinblastine (VB), a tubulin-polymerization inhibitor, and in vitro fertilization was conducted with mouse sperm. […]
(In the case where zona pellucida-free oocytes were use): To quantify sperm-oocyte fusion efficiency, zona pellucida-free mouse unfertilized oocytes were treated with vinblastine (VB), a tubulin-polymerization inhibitor, or paclitaxel (Pac), tubulin-polymerization promoter, or left untreated (control). […]

[2] = system: mouse unfertilized oocytes with zona pellucida; test: In vitro fertilization of oocytes with zona pellucida, fertilization efficiency; assay type: cell-based
Procedure: as §1, §2
The mouse unfertilized oocyte was treated with vinblastine (VB), a tubulin-polymerization inhibitor, and in vitro fertilization was conducted with mouse sperm. As controls, an unfertilized oocyte treated with paclitaxel (Pac; Brand Name: taxol), tubulin-polymerization promoter, and an untreated oocyte (control) were used. […]

SMILES | sperm-oocyte membrane fusion ([1]; mouse unfertilized oocyte treated with tubulin-polymerization promoter) | number of sperm which fused with the oocytes [1] | increase of fertilization efficiency compared to untreated oocytes ([2]; 2-cell-stage oocytes, oocytes cultured 1 hr in 20 μM vinblastine (FIG. 2)) [%] | fusion efficiency of oocytes treated with anti-mouse CD9 antibody having a fusion-inhibitory effect ([2]; vinblastine treatment together with anti-mouse CD9 antibody) | fusion of immature oocytes with sperm ([2]; vinblastine-treated immature oocytes)
CC(=O)O[C@H]1C(=O)[C@@]2(C)[C@H]([C@H](OC(=O)c3ccccc3)[C@]3(O)C[C@H](OC(=O)[C@H](O)[C@@H](NC(=O)c4ccccc4)c4ccccc4)C(C)=C1C3(C)C)[C@]1(OC(C)=O)CO[C@@H]1C[C@@H]2O [paclitaxel] | inhibited | not fused |  |  | 
CC[C@]1(O)C[C@@H]2CN(CCc3c([nH]c4ccccc34)[C@@](C(=O)OC)(c3cc4c(cc3OC)N(C)[C@H]3[C@@](O)(C(=O)OC)[C@H](OC(C)=O)[C@]5(CC)C=CCN6CC[C@]43[C@@H]65)C2)C1 [vinblastine] |  | largest number | 20 | increased | could be fused with sperm; also recorded: could fuse with sperm
